Residues, ends and D or L forms follow the SMILES beside them. *: point of attachment. Cbz = O=C(OCc1ccccc1)*
Legend:
[1] = system: cleaved ATF6; assay: Western blot of ATF6 cleavage in L444P GC fibroblasts; type: cell-based, human; settings: 0.8 μM; for cleaved ATF6 / activation of ATF6: 24 h
Description: ATF6 responds to stress by regulated proteolysis in the Golgi, liberating a cytosolic fragment of ATF6 that activates a subset of UPR genes. Ron et al., Nat Rev Mol Cell Biol 8: 519-529, 2007; Schroeder et al., Ann Rev Biochem 74: 739-789, 2005. Cleavage of ATF6 was monitored by Western blot analysis. […] Our observation that ATF6 is constitutively activated in L444P GC fibroblasts is consistent with recent reports that ATF6a optimizes long term ER function to protect cells from chronic stress. Wu et al., Dev Cell 13: 351-364, 2007.
Western blot analyses. Cells were lysed with the complete lysis-M buffer containing complete protease inhibitor cocktail (Roche, Nutley, N.J.). Total cell protein was determined with Micro BCA assay reagent (Pierce, Rockford, Ill.) and each sample was diluted to the same protein concentration. Company specifications were followed for protein treatment with EndoH and PNGase F (New England Biolabs, Ipswich, Mass.). Aliquots of cell lysates were separated in a 10% SDS-PAGE gel and western blot analysis was performed using appropriate antibodies. Rabbit anti-Hsp70, anti-HSF1, and anti-actin were from Stressgen (Victoria, BC, Canada). Mouse monoclonal anti-GC 2E2 was from Novus Biologicals (Littleton, Colo.). Mouse monoclonal anti-ATF6 was from IMGENEX (San Diego, Calif.). Secondary goat anti-rabbit and goat anti-mouse HRP-conjugated antibodies were from Pierce. Blots were visualized using SuperSignal West Femto Maximum Sensitivity or West Pico Substrate (Pierce). The western blot bands of the endoH treated samples were quantified by Java Image processing and analysis software from the NIH (http://rsb.info.nih.gov/ij/).

[2] = system: spliced Xbp-1 mRNA (IRE1 arm of the UPR); assay: RT-PCR analysis of Xbp-1 splicing in L444P GC fibroblasts; type: cell-based, human; settings: single exposure 0.8 μM; 2, 4, 6 and 24 h
Description: IRE1 responds to stress by oligomerization, resulting in trans-autophosphorylation that activates its endonuclease function, precisely splicing the mRNA that encodes the transcription factor XBP1. Ron et al., Nat Rev Mol Cell Biol 8: 519-529, 2007; Schroeder et al., Ann Rev Biochem 74: 739-789, 2005. RT-PCR was performed to detect the spliced mRNA of XBP1.
RT-PCR analysis of Xbp-1 splicing. cDNA was synthesized as in quantitative RT-PCR. Samples were heated for 5 min at 95° C., amplified in 30 cycles of 60 s at 95° C., 30 s at 58° C., and 30 s at 72° C., and 5 min at 72° C. PCR products were subjected to a 2.5% agarose gel. Unspliced Xbp-1 yielded a 289 bp amplicon, and spliced Xbp-1 yielded a 263 bp amplicon. The experiments were performed three times and similar results were obtained.

[3] = system: N370S/84GG GC; assay: GC activity assay in N370S/84GG GC fibroblasts; type: cell-based, human; settings: diltiazem 10 μM, 5-day treatment
Description: Enzyme activity assays. The intact cell GC activity assay has been previously described. Sawkar et al., Proc Natl Acad Sci USA 99: 15428-15433, 2002. Briefly, cells were plated into 48-well assay plates (500 μl per well). After cell attachment, the media was replaced by media containing small molecules. Media was changed every 3 days. […] The monolayers were washed by DPBS. The reaction was started by the addition of 150 μl of 3 mM 4-methylumbelliferyl β-D-glucopyranoside in 0.2 M acetate buffer (pH 4.0) to each well, followed by incubation at 37° C. for 1 hour to 7 hours. CBE was used as a control to evaluate the extent of nonspecific GC activity. […] Liberated 4-methylumbelliferone was measured (excitation 365 nm, emission 445 nm) with a SpectraMax Gemini plate reader (Molecular Device, Sunnyvale, Calif.). The lysed cell GC activity assay has been previously described. Sawkar et al., Proc Natl Acad Sci USA 99: 15428-15433, 2002. […] Total cell protein was measured using the Micro BCA assay reagent (Pierce, Rockford, Ill., #23235). 30 μg of total cell protein was assayed for the GC activity in 100 μl of 0.1 M acetate buffer (pH 5.0) containing 3 mM 4-methylumbelliferyl β-D-glucopyranoside in the presence of 0.15% Triton X-100 (v/v, Fisher) and 0.15% taurodeoxycholate (w/v, Calbiochem). CBE was used as a control to evaluate the extent of nonspecific GC activity. […]

[4] = system: WT lysosomal hydrolases; assay: Activity of other WT lysosomal enzymes in fibroblasts; settings: WT fibroblasts and L444P GC fibroblasts, diltiazem 10 μM, 5 days (FIG. 23)
[5] = system: ΔF508 CFTR; assay: Trafficking of ΔF508 CFTR to the plasma membrane; type: cell-based; settings: diltiazem treatment

SMILES | level of cleaved ATF6 ([1]; 2 h) | cleaved ATF6 / activation of ATF6 [1] | cleaved ATF6 / activation of ATF6 ([1]; listed as MG132) | spliced Xbp-1 mRNA [2] | N370S/84GG GC activity as % of cellular WT GC activity [3] | effect on activity of other WT lysosomal enzymes [4] | trafficking of ΔF508 CFTR to the plasma membrane [5]
CC(C)C[C@@H](C=O)NC(=O)[C@H](CC(C)C)NC(=O)[C@H](CC(C)C)NC(=O)OCc1ccccc1 [MG-132] (Cbz-Leu-Leu-Leu-aldehyde) | increased the level of cleaved ATF6 | undetectable | diminished the activation | no spliced Xbp-1 could be detected | – | – | –
COc1ccc([C@@H]2Sc3ccccc3N(CCN(C)C)C(=O)[C@@H]2OC(C)=O)cc1.Cl [diltiazem, Diltiazem hydrochloride] | – | – | – | – | ≈ 36% | did not significantly increase the activity of other WT lysosomal enzymes | Nor does diltiazem treatment increase the trafficking
